Measured values taken from US20110082130A1 (LIGAND PHARMACEUTICALS, INC., priority 2006, published 2011).

biological target: T1, chimeric human H3 receptor (Homo sapiens, UniProt Q9Y5N1); assay: Chimeric human H3 receptor screening GTP binding assay (inhibition of histamine-stimulated GTP-gamma35S binding, Example 8); assay type: biochemical; conditions: 4 μM of the compound, 1 μM histamine, "†" in Ki of Table II, read-out: percent inhibition of the signal obtained with 1 μM histamine
T1 construct: made in house; host or cells: Sf9 insect cells (baculovirus); P2 membrane preparation
T1 sequence (Q9Y5N1 with tags, fused parts or gaps): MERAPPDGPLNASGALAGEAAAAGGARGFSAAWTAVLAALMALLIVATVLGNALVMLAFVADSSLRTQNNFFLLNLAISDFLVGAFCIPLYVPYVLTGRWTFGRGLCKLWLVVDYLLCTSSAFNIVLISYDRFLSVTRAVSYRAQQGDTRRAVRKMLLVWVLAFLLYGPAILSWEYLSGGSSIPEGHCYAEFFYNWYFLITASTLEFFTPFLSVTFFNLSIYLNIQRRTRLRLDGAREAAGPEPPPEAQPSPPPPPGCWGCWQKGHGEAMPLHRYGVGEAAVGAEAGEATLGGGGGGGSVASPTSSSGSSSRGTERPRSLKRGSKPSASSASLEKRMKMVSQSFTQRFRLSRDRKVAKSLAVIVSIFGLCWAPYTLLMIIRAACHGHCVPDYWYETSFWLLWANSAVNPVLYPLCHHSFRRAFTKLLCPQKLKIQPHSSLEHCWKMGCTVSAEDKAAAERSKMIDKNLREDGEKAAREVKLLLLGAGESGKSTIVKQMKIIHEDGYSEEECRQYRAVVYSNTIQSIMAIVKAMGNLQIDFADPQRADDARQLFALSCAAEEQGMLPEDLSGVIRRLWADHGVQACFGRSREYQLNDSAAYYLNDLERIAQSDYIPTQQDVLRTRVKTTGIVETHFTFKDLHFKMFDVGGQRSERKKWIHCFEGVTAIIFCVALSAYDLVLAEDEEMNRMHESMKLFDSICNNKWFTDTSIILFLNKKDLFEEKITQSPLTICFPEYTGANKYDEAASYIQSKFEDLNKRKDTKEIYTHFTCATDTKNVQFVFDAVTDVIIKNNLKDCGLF
Outline: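 Sf9 membranes co-expressing chimeric human H3 receptor and heterotrimeric G-protein, 35 μg per reaction, incubated 60 min at room temperature with 4 μM compound, 1 μM histamine, 10 μM GDP and […] GTP-gamma35S at pH 7.4. Filter-bound radioactivity counted. Result expressed as percent inhibition of the histamine signal after subtracting non-specific binding (10 μM GTP-gammaS).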

Inhibition at 4 µM, ≥ 90%:
Cc1cccc(-c2ccc3c(c2)CCN(CC(=O)N2CCN(C4CCCC4)CC2)C3)c1 [Compound 433, 2-[2-(4-cyclopentylpiperazin-1-yl)-2-oxoethyl]-6-(3-methylphenyl)-1,2,3,4-tetrahydroisoquinoline]
O=C(CN1CCc2cc(-c3ccc(Cl)cc3)ccc2C1)N1CCN(C2CCC2)CC1 [Compound 404, 6-(4-chlorophenyl)-2-[2-(4-cyclobutylpiperazin-1-yl)-2-oxoethyl]-1,2,3,4-tetrahydroisoquinoline]
Cc1cccc(-c2ccc3c(c2)CCN(CC(=O)N2CCN(C4CCCCC4)CC2)C3)c1 [Compound 434, 2-[2-(4-cyclohexylpiperazin-1-yl)-2-oxoethyl]-6-(3-methylphenyl)-1,2,3,4-tetrahydroisoquinoline]
O=C(CN1CCc2cc(-c3ccc(OC(F)(F)F)cc3)ccc2C1)N1CCN(C2CCCC2)CC1 [Compound 479, 2-[2-(4-cyclopentylpiperazin-1-yl)-2-oxoethyl]-6-[4-(trifluoromethoxy)phenyl]-1,2,3,4-tetrahydroisoquinoline]
CC(C)N1CCN(C(=O)CN2CCc3cc(-c4ccc(C(C)(C)C)cc4)ccc3C2)CC1 [Compound 474, 6-(4-tert-butylphenyl)-2-[2-(4-isopropylpiperazin-1-yl)-2-oxoethyl]-1,2,3,4-tetrahydroisoquinoline]
CCCc1ccc(-c2ccc3c(c2)CCN(CC(=O)N2CCN(C4CCC4)CC2)C3)cc1 [Compound 463, 2-[2-(4-cyclobutylpiperazin-1-yl)-2-oxoethyl]-6-(4-propylphenyl)-1,2,3,4-tetrahydroisoquinoline]
CC(C)N1CCN(C(=O)CN2CCc3cc(-c4cccc(F)c4)ccc3C2)CC1 [Compound 413, 6-(3-fluorophenyl)-2-[2-(4-isopropylpiperazin-1-yl)-2-oxoethyl]-1,2,3,4-tetrahydroisoquinoline]
CC(C)c1cccc(-c2ccc3c(c2)CCN(CC(=O)N2CCN(C(C)C)CC2)C3)c1 [Compound 442, 6-(3-isopropylphenyl)-2-[2-(4-isopropylpiperazin-1-yl)-2-oxoethyl]-1,2,3,4-tetrahydroisoquinoline]
CCCCc1ccc(-c2ccc3c(c2)CCN(CC(=O)N2CCN(C4CCC4)CC2)C3)cc1 [Compound 451, 6-(4-butylphenyl)-2-[2-(4-cyclobutylpiperazin-1-yl)-2-oxoethyl]-1,2,3,4-tetrahydroisoquinoline]
CCc1ccc(-c2ccc3c(c2)CCN(CC(=O)N2CCN(C4CCCCC4)CC2)C3)cc1 [Compound 461, 2-[2-(4-cyclohexylpiperazin-1-yl)-2-oxoethyl]-6-(4-ethylphenyl)-1,2,3,4-tetrahydroisoquinoline]
O=C(CN1CCc2cc(-c3cccc4c3oc3ccccc34)ccc2C1)N1CCN(C2CCC2)CC1 [Compound 388, 2-[2-(4-cyclobutylpiperazin-1-yl)-2-oxoethyl]-6-dibenzo[b,d]furan-4-yl-1,2,3,4-tetrahydroisoquinoline]
CC(C)c1cccc(-c2ccc3c(c2)CCN(CC(=O)N2CCN(C4CCC4)CC2)C3)c1 [Compound 439, 2-[2-(4-cyclobutylpiperazin-1-yl)-2-oxoethyl]-6-(3-isopropylphenyl)-1,2,3,4-tetrahydroisoquinoline]
CCCc1ccc(-c2ccc3c(c2)CCN(CC(=O)N2CCN(C4CCCCC4)CC2)C3)cc1 [Compound 465, 2-[2-(4-cyclohexylpiperazin-1-yl)-2-oxoethyl]-6-(4-propylphenyl)-1,2,3,4-tetrahydroisoquinoline]
Cc1ccc(F)c(-c2ccc3c(c2)CCN(CC(=O)N2CCN(C4CCCCC4)CC2)C3)c1 [Compound 425, 2-[2-(4-cyclohexylpiperazin-1-yl)-2-oxoethyl]-6-(2-fluoro-5-methylphenyl)-1,2,3,4-tetrahydroisoquinoline]
COc1cccc(-c2ccc3c(c2)CCN(CC(=O)N2CCN(C4CCCCC4)CC2)C3)c1 [Compound 477, 2-[2-(4-cyclohexylpiperazin-1-yl)-2-oxoethyl]-6-(3-methoxyphenyl)-1,2,3,4-tetrahydroisoquinoline]
Cc1ccc(-c2ccc3c(c2)CCN(CC(=O)N2CCN(C4CCC4)CC2)C3)cc1C [Compound 447, 2-[2-(4-cyclobutylpiperazin-1-yl)-2-oxoethyl]-6-(3,4-dimethylphenyl)-1,2,3,4-tetrahydroisoquinoline]
O=C(CN1CCc2cc(-c3ccc(F)cc3)ccc2C1)N1CCN(C2CCCCC2)CC1 [Compound 409, 2-[2-(4-cyclohexylpiperazin-1-yl)-2-oxoethyl]-6-(4-fluorophenyl)-1,2,3,4-tetrahydroisoquinoline]

same assay, conditions: Table II "Ki", symbol †, 4 μM of the compound, 1 μM histamine, read-out: percent inhibition of the signal obtained with 1 μM histamine

Inhibition at 4 µM, ≥ 90%:
COC1CCCN(c2ccc3c(n2)CCN(CC(=O)N2CCN(C4CCC4)CC2)C3)C1 (centres unmarked) [Compound 671, 6-[2-(4-cyclobutylpiperazin-1-yl)-2-oxoethyl]-2-(3-methoxypiperidin-1-yl)-5,6,7,8-tetrahydro-1,6-naphthyridine]
O=C(CN1CCc2cc(-c3cncnc3)ccc2C1)N1C[C@@H]2C[C@H]1CN2C1CCCCC1 (stereo in doubt) [Compound 618, 2-{2-[(1S,4S)-5-cyclohexyl-2,5-diazabicyclo[2.2.1]hept-2-yl]-2-oxoethyl}-6-pyrimidin-5-yl-1,2,3,4-tetrahydroisoquinoline]
COc1ccc(OC)c(-c2ccc3c(c2)CCN(CC(=O)N2CCN(C4CCCCC4)CC2)C3)c1 [Compound 561, 2-[2-(4-cyclohexylpiperazin-1-yl)-2-oxoethyl]-6-(2,5-dimethoxyphenyl)-1,2,3,4-tetrahydroisquinoline]
CC(C)OCCNc1ccc2c(n1)CCN(CC(=O)N1CCN(C3CCC3)CC1)C2 [Compound 668, 6-[2-(4-cyclobutylpiperazin-1-yl)-2-oxoethyl]-N-(2-isopropoxyethyl)-5,6,7,8-tetrahydro-1,6-naphthyridin-2-amine]
COc1ccc(OC)c(-c2ccc3c(c2)CCN(CC(=O)N2CCN(C4CCCC4)CC2)C3)c1 [Compound 560, 2-[2-(4-cyclopentylpiperazin-1-yl)-2-oxoethyl]-6-(2,5-dimethoxyphenyl)-1,2,3,4-tetrahydroisoquinoline]
CCCOc1ccc(-c2ccc3c(c2)CCN(CC(=O)N2CCN(C(C)C)CC2)C3)cc1 [Compound 547, 2-[2-(4-isopropylpiperazin-1-yl)-2-oxoethyl]-6-(4-propoxyphenyl)-1,2,3,4-tetrahydroisoquinoline]
COc1ccc(F)cc1-c1ccc2c(c1)CCN(CC(=O)N1CCN(C3CCCC3)CC1)C2 [Compound 571, 2-[2-(4-cyclopentylpiperazin-1-yl)-2-oxoethyl]-6-(5-fluoro-2-methoxyphenyl)-1,2,3,4-tetrahydroisoquinoline]
C[C@H]1CN(C(=O)CN2CCc3cc(-c4cncnc4)ccc3C2)CCN1C1CCOCC1 [Compound 622, 2-{2-[(3S)-3-methyl-4-(tetrahydro-2H-pyran-4-yl)piperazin-1-yl]-2-oxoethyl}-6-pyrimidin-5-yl-1,2,3,4-tetrahydroisoquinoline]
O=C(CN1CCc2cc(-c3cccc(F)c3F)ccc2C1)N1CCN(C2CCCC2)CC1 [Compound 600, 2-[2-(4-cyclopentylpiperazin-1-yl)-2-oxoethyl]-6-(2,3-difluorophenyl)-1,2,3,4-tetrahydroisoquinoline]
CCOc1ccccc1-c1ccc2c(c1)CCN(CC(=O)N1CCN(C(C)C)CC1)C2 [Compound 569, 6-(2-ethoxyphenyl)-2-[2-(4-isopropylpiperazin-1-yl)-2-oxoethyl]-1,2,3,4-tetrahydroisoquinoline]
COc1ccc(-c2ccc3c(c2)CCN(CC(=O)N2CCN(C4CCCCC4)CC2)C3)c(OC)c1 [Compound 565, 2-[2-(4-cyclohexylpiperazin-1-yl)-2-oxoethyl]-6-(2,4-dimethoxyphenyl)-1,2,3,4-tetrahydroisoquinoline]
O=C(CN1CCc2cc(-c3cc(F)ccc3F)ccc2C1)N1CCN(C2CCCC2)CC1 [Compound 583, 2-[2-(4-cyclopentylpiperazin-1-yl)-2-oxoethyl]-6-(2,5-difluorophenyl)-1,2,3,4-tetrahydroisoquinoline]
COc1ccc(F)cc1-c1ccc2c(c1)CCN(CC(=O)N1CCN(C3CCC3)CC1)C2 [Compound 570, 2-[2-(4-cyclobutylpiperazin-1-yl)-2-oxoethyl]-6-(5-fluoro-2-methoxyphenyl)-1,2,3,4-tetrahydroisoquinoline]
COc1ccc(C(C)C)cc1-c1ccc2c(c1)CCN(CC(=O)N1CCN(C3CCC3)CC1)C2 [Compound 554, 2-[2-(4-cyclobutylpiperazin-1-yl)-2-oxoethyl]-6-(5-isopropyl-2-methoxyphenyl)-1,2,3,4-tetrahydroisoquinoline]
CCOc1ccccc1-c1ccc2c(c1)CCN(CC(=O)N1CCN(C3CCCC3)CC1)C2 [Compound 567, 2-[2-(4-cyclopentylpiperazin-1-yl)-2-oxoethyl]-6-(2-ethoxyphenyl)-1,2,3,4-tetrahydroisoquinoline]
